SMILES: CC(=O)Oc1ccccc1C(=O)Nc1ncc([N+](=O)[O-])s1
- solubility (mole fraction) (in 1,4-dioxane, 288.15 K): 0.0102
- solubility (mole fraction) (in 1,4-dioxane, 293.15 K): 0.0131
- solubility (mole fraction) (in 1,4-dioxane, 298.15 K): 0.0167
- solubility (mole fraction) (in 1,4-dioxane, 303.15 K): 0.0207
- solubility (mole fraction) (in 1,4-dioxane, 308.15 K): 0.0254
- solubility (mole fraction) (in 1,4-dioxane, 313.15 K): 0.0311
- solubility (mole fraction) (in 2-butanone, 273.15 K): 0.00334
- solubility (mole fraction) (in 2-butanone, 278.15 K): 0.00496
- solubility (mole fraction) (in 2-butanone, 283.15 K): 0.0066
- solubility (mole fraction) (in 2-butanone, 288.15 K): 0.00859
- solubility (mole fraction) (in 2-butanone, 293.15 K): 0.0107
- solubility (mole fraction) (in 2-butanone, 298.15 K): 0.0131
- solubility (mole fraction) (in 2-butanone, 303.15 K): 0.0158
- solubility (mole fraction) (in 2-butanone, 308.15 K): 0.0191
- solubility (mole fraction) (in 2-butanone, 313.15 K): 0.0229
- solubility (mole fraction) (in DMF, 273.15 K): 0.0637
- solubility (mole fraction) (in DMF, 278.15 K): 0.0672
- solubility (mole fraction) (in DMF, 283.15 K): 0.0711
- solubility (mole fraction) (in DMF, 288.15 K): 0.0751
- solubility (mole fraction) (in DMF, 293.15 K): 0.0797
- solubility (mole fraction) (in DMF, 298.15 K): 0.0846
- solubility (mole fraction) (in DMF, 303.15 K): 0.0901
- solubility (mole fraction) (in DMF, 308.15 K): 0.097
- solubility (mole fraction) (in DMF, 313.15 K): 0.104
- solubility (mole fraction) (in NMP, 273.15 K): 0.0878
- solubility (mole fraction) (in NMP, 278.15 K): 0.09
- solubility (mole fraction) (in NMP, 283.15 K): 0.0925
- solubility (mole fraction) (in NMP, 288.15 K): 0.0953
- solubility (mole fraction) (in NMP, 293.15 K): 0.098
- solubility (mole fraction) (in NMP, 298.15 K): 0.101
- solubility (mole fraction) (in NMP, 303.15 K): 0.105
- solubility (mole fraction) (in NMP, 308.15 K): 0.109
- solubility (mole fraction) (in NMP, 313.15 K): 0.113
- solubility (mole fraction) (in acetonitrile, 273.15 K): 0.00082
- solubility (mole fraction) (in acetonitrile, 278.15 K): 0.000924
- solubility (mole fraction) (in acetonitrile, 283.15 K): 0.00103
- solubility (mole fraction) (in acetonitrile, 288.15 K): 0.00115
- solubility (mole fraction) (in acetonitrile, 293.15 K): 0.00127
- solubility (mole fraction) (in acetonitrile, 298.15 K): 0.00141
- solubility (mole fraction) (in acetonitrile, 303.15 K): 0.00158
- solubility (mole fraction) (in acetonitrile, 308.15 K): 0.00178
- solubility (mole fraction) (in acetonitrile, 313.15 K): 0.00201
- solubility (mole fraction) (in ethanol, 273.15 K): 0.000117
- solubility (mole fraction) (in ethanol, 278.15 K): 0.000147
- solubility (mole fraction) (in ethanol, 283.15 K): 0.000179
- solubility (mole fraction) (in ethanol, 288.15 K): 0.000211
- solubility (mole fraction) (in ethanol, 293.15 K): 0.000246
- solubility (mole fraction) (in ethanol, 298.15 K): 0.000285
- solubility (mole fraction) (in ethanol, 303.15 K): 0.000331
- solubility (mole fraction) (in ethanol, 308.15 K): 0.000385
- solubility (mole fraction) (in ethanol, 313.15 K): 0.00045
- solubility (mole fraction) (in ethyl acetate, 273.15 K): 0.00185
- solubility (mole fraction) (in ethyl acetate, 278.15 K): 0.00206
- solubility (mole fraction) (in ethyl acetate, 283.15 K): 0.00229
- solubility (mole fraction) (in ethyl acetate, 288.15 K): 0.00252
- solubility (mole fraction) (in ethyl acetate, 293.15 K): 0.00276
- solubility (mole fraction) (in ethyl acetate, 298.15 K): 0.003
- solubility (mole fraction) (in ethyl acetate, 303.15 K): 0.0033
- solubility (mole fraction) (in ethyl acetate, 308.15 K): 0.00362
- solubility (mole fraction) (in ethyl acetate, 313.15 K): 0.00399
- solubility (mole fraction) (in isopropanol, 273.15 K): 0.000162
- solubility (mole fraction) (in isopropanol, 278.15 K): 0.000202
- solubility (mole fraction) (in isopropanol, 283.15 K): 0.000243
- solubility (mole fraction) (in isopropanol, 288.15 K): 0.000287
- solubility (mole fraction) (in isopropanol, 293.15 K): 0.000333
- solubility (mole fraction) (in isopropanol, 298.15 K): 0.000383
- solubility (mole fraction) (in isopropanol, 303.15 K): 0.000436
- solubility (mole fraction) (in isopropanol, 308.15 K): 0.000502
- solubility (mole fraction) (in isopropanol, 313.15 K): 0.00058
- solubility (mole fraction) (in methanol, 273.15 K): 0.000103
- solubility (mole fraction) (in methanol, 278.15 K): 0.000126
- solubility (mole fraction) (in methanol, 283.15 K): 0.00015
- solubility (mole fraction) (in methanol, 288.15 K): 0.000177
- solubility (mole fraction) (in methanol, 293.15 K): 0.000202
- solubility (mole fraction) (in methanol, 298.15 K): 0.00023
- solubility (mole fraction) (in methanol, 303.15 K): 0.000261
- solubility (mole fraction) (in methanol, 308.15 K): 0.000298
- solubility (mole fraction) (in methanol, 313.15 K): 0.000334
- solubility (mole fraction) (in n-butanol, 273.15 K): 0.000176
- solubility (mole fraction) (in n-butanol, 278.15 K): 0.000214
- solubility (mole fraction) (in n-butanol, 283.15 K): 0.000257
- solubility (mole fraction) (in n-butanol, 288.15 K): 0.000303
- solubility (mole fraction) (in n-butanol, 293.15 K): 0.000354
- solubility (mole fraction) (in n-butanol, 298.15 K): 0.000408
- solubility (mole fraction) (in n-butanol, 303.15 K): 0.000471
- solubility (mole fraction) (in n-butanol, 308.15 K): 0.000541
- solubility (mole fraction) (in n-butanol, 313.15 K): 0.000617
- solubility (mole fraction) (in n-propanol, 273.15 K): 0.000138
- solubility (mole fraction) (in n-propanol, 278.15 K): 0.000173
- solubility (mole fraction) (in n-propanol, 283.15 K): 0.000211
- solubility (mole fraction) (in n-propanol, 288.15 K): 0.00025
- solubility (mole fraction) (in n-propanol, 293.15 K): 0.00029
- solubility (mole fraction) (in n-propanol, 298.15 K): 0.000336
- solubility (mole fraction) (in n-propanol, 303.15 K): 0.00039
- solubility (mole fraction) (in n-propanol, 308.15 K): 0.000453
- solubility (mole fraction) (in n-propanol, 313.15 K): 0.000525
- solubility (mole fraction) (in toluene, 273.15 K): 7.6e-05
- solubility (mole fraction) (in toluene, 278.15 K): 9.9e-05
- solubility (mole fraction) (in toluene, 283.15 K): 0.000123
- solubility (mole fraction) (in toluene, 288.15 K): 0.000146
- solubility (mole fraction) (in toluene, 293.15 K): 0.00017
- solubility (mole fraction) (in toluene, 298.15 K): 0.000197
- solubility (mole fraction) (in toluene, 303.15 K): 0.000225
- solubility (mole fraction) (in toluene, 308.15 K): 0.000258
- solubility (mole fraction) (in toluene, 313.15 K): 0.000291
